{"source": "patent US11691972B2", "about": "“Compounds for targeted degradation of BRD9” (C4 Therapeutics, Inc., priority 2020, dated 2023)", "target": "T1, BRD9 (Homo sapiens, UniProt Q9H8M2)", "T1 sequence (Q9H8M2 1-597)": "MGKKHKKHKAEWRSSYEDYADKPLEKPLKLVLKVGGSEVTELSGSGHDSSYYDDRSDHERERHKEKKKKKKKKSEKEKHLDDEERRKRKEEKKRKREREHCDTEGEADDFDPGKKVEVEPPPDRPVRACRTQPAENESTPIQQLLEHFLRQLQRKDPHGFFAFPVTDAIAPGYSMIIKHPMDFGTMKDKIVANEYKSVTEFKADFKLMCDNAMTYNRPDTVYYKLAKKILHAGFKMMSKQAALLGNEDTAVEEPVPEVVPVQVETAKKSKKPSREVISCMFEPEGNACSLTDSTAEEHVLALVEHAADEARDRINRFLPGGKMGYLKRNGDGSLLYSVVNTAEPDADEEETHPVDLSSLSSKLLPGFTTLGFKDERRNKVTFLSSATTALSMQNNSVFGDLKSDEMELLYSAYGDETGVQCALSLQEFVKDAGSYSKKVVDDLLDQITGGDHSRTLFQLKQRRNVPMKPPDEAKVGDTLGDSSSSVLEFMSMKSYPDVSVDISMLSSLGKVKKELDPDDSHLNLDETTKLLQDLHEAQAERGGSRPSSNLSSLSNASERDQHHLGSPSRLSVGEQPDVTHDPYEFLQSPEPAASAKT", "experiment": "HiBiT BRD9 degradation assay in 293T.166 (BRD9-HiBiT) cells", "assay_type": "cell-based", "set-up": "endogenously expressing BRD9 with HiBiT fusion tag via CRISPR; host or cells: 293T.166 (BRD9-HiBiT), also expressing LgBiT ectopically", "settings": "293T.166 cells, 2.0 hours, class symbols, read-out: HiBiT-Degradation 293T.166 BRD9 2.0 hours (DC50)", "summary_of_the_method": "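293T.166 cells carrying endogenous CRISPR BRD9-HiBiT and expressing LgBiT treated 2 h at 37° C. with compounds, 11-point half-log titration from 10 μM in duplicate. Remaining BRD9 measured as lytic HiBiT luminescence; untreated cells as negative control, no-reagent wells as positive control.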", "note": "Read-outs that look alike come from different tables or passages of the source."}
{"smiles": "COc1cc(-c2cn(C)c(=O)c3cnccc23)cc(Cl)c1C(=O)N1CCC(CC(=O)N2CCC(c3ccc(NC4CCC(=O)NC4=O)cc3)CC2)CC1", "note": "(stereo not shown) [Compound 232, 3-[4-[1-[2-[1-[2-chloro-6-methoxy-4-(2-methyl-1-oxo-2,7-naphthyridin-4-yl)benzoyl]-4-piperidyl]acetyl]-4-piperidyl]anilino]piperidine-2,6-dione]", "values": [{"measurement": "DC50", "setting": "Table 1", "result": "< 100", "unit": "nM"}]}
{"smiles": "COc1cc(-c2cn(C)c(=O)c3ccccc23)cc(Cl)c1CN1CCC(N2CCN(c3ccc(NC4CCC(=O)NC4=O)cc3F)CC2)C(F)(F)C1", "note": "(stereo not shown) [Compound 192]", "values": [{"measurement": "DC50", "setting": "Table 1", "result": "< 100", "unit": "nM"}]}
{"smiles": "COc1cc(-c2cn(C)c(=O)c3cnccc23)cc(Cl)c1C(=O)N1CCC(N(C)C(=O)N2CCC(c3ccc(NC4CCC(=O)NC4=O)cc3)CC2)CC1", "note": "(stereo not shown) [Compound 126, N-[1-[2-chloro-6-methoxy-4-(2-methyl-1-oxo-2,7-naphthyridin-4-yl)benzoyl]-4-piperidyl]-4-[4-[(2,6-dioxo-3-piperidyl)amino]phenyl]-N-methyl-piperidine-1-carboxamide]", "values": [{"measurement": "DC50", "setting": "Table 1", "result": "< 100", "unit": "nM"}]}
{"smiles": "COc1cc(-c2cn(C)c(=O)c3cnccc23)cc(Cl)c1C(=O)N1CCc2c(CC3CCN(c4ccc(NC5CCC(=O)NC5=O)cc4F)CC3)cccc2C1", "note": "(stereo not shown) [Compound 235]", "values": [{"measurement": "DC50", "setting": "Table 1", "result": "< 100", "unit": "nM"}]}
{"smiles": "COc1cc(-c2cn(C)c(=O)c(C)c2C)cnc1CN1CCC(C2CCN(c3ccc(NC4CCC(=O)NC4=O)cc3F)CC2)CC1", "note": "(stereo not shown) [Compound 82]", "values": [{"measurement": "DC50", "setting": "Table 1", "result": "< 100", "unit": "nM"}]}
{"smiles": "COc1cc(-c2cn(C)c(=O)c(C)c2C)cc(OC)c1CN1CCC(C2CCN(c3ccc(NC4CCC(=O)NC4=O)cc3F)CC2)C(F)(F)C1", "note": "(stereo not shown) [Compound 198]", "values": [{"measurement": "DC50", "setting": "Table 1", "result": "< 100", "unit": "nM"}]}
{"smiles": "COc1cc(-c2cn(C)c(=O)c3[nH]ncc23)cc(F)c1C(=O)N1CCC(N(C)C(=O)N2CCC(c3ccc(NC4CCC(=O)NC4=O)cc3)CC2)CC1", "note": "(stereo not shown) [Compound 134]", "values": [{"measurement": "DC50", "setting": "Table 1", "result": "< 100", "unit": "nM"}]}
{"smiles": "COc1cc(-c2cn(C)c(=O)c3[nH]ncc23)cc(F)c1CN1CCC(N(C)C(=O)N2CCC(c3ccc(NC4CCC(=O)NC4=O)cc3)CC2)CC1", "note": "(stereo not shown) [Compound 112, 4-[4[(2,6-dioxo-3-piperidyl)amino]phenyl]-N-[1-[[2-fluoro-6-methoxy-4-(6-methyl-7-oxo-1H-pyrazolo[3,4-c]pyridin-4-yl)phenyl]methyl]-4-piperidyl]-N-methyl-piperidine-1-carboxamide]", "values": [{"measurement": "DC50", "setting": "Table 1", "result": "< 100", "unit": "nM"}]}
{"smiles": "COc1cc(-c2cn(C)c(=O)c(C)c2C)cc(Cl)c1C(=O)N1CCC(C2CCN(c3ccc(NC4CCC(=O)NC4=O)cn3)CC2)CC1", "note": "(stereo not shown) [Compound 218, 3-[[6-[4-[1-[2-chloro-6-methoxy-4-(1,4,5-trimethyl-6-oxo-3-pyridyl)benzoyl]-4-piperidyl]-1-piperidyl]-3-pyridyl]amino]piperidine-2,6-dione]", "values": [{"measurement": "DC50", "setting": "Table 1", "result": "< 100", "unit": "nM"}]}
{"smiles": "COc1cc(-c2cn(C)c(=O)c(C)c2C)cc(OC)c1CN1CCC(N2CCN(c3ccc(OC4CCC(=O)NC4=O)cc3F)CC2)C(F)(F)C1", "note": "(stereo not shown) [Compound 251, 3-[4-[4-[1-[[2,6-dimethoxy-4-(1,4,5-trimethyl-6-oxo-3-pyridyl)phenyl]methyl]-3,3-difluoro-4-piperidyl]piperazin-1-yl]-3-fluoro-phenoxy]piperidine-2,6-dione]", "values": [{"measurement": "DC50", "setting": "Table 2", "result": "< 100", "unit": "nM"}]}
{"smiles": "COc1cc(-c2cn(C)c(=O)c3[nH]ncc23)cc(OC)c1CN1CCN(C(=O)CN2CCC(c3ccc(NC4CCC(=O)NC4=O)cc3F)CC2)CC1", "note": "(stereo not shown) [Compound 7]", "values": [{"measurement": "DC50", "setting": "Table 1", "result": "< 100", "unit": "nM"}]}
{"smiles": "COc1cc(-c2cn(C)c(=O)c3cnccc23)cc(Cl)c1C(=O)N1CCC(F)(C2CCN(c3ccc(NC4CCC(=O)NC4=O)cc3F)CC2)CC1", "note": "(stereo not shown) [Compound 275]", "values": [{"measurement": "DC50", "setting": "Table 2", "result": "< 100", "unit": "nM"}]}
{"smiles": "Cn1cc(-c2ccc(CN3CCN(C(=O)CN4CCC(c5ccc(NC6CCC(=O)NC6=O)cc5)CC4)CC3)c(OC(F)(F)F)c2)c2ccc(F)cc2c1=O", "note": "(stereo not shown) [Compound 36]", "values": [{"measurement": "DC50", "setting": "Table 1", "result": "< 100", "unit": "nM"}]}
{"smiles": "COc1cc(-c2cn(C)c(=O)c3[nH]ncc23)cc(OC)c1CNc1ccc(CC(=O)N2CCC(c3ccc(NC4CCC(=O)NC4=O)cc3)CC2)cc1", "note": "(stereo not shown) [Compound 165, 3-[4-[1-[2-[4-[[2,6-dimethoxy-4-(6-methyl-7-oxo-1H-pyrazolo[3,4-c]pyridin-4-yl)phenyl]methylamino]phenyl]acetyl]-4-piperidyl]anilino]piperidine-2,6-dione]", "values": [{"measurement": "DC50", "setting": "Table 1", "result": "< 100", "unit": "nM"}]}
{"smiles": "COc1cc(-c2cn(C)c(=O)c3[nH]ncc23)cc(F)c1CN1CCC(C2CCN(c3ccc(NC4CCC(=O)NC4=O)cc3C(F)(F)F)CC2)CC1", "note": "(stereo not shown) [Compound 84]", "values": [{"measurement": "DC50", "setting": "Table 1", "result": "< 100", "unit": "nM"}]}
{"smiles": "COc1cc(-c2cn(C)c(=O)c3[nH]ncc23)cc(Cl)c1CN1CCC(CC(=O)N2CCC(c3ccc(NC4CCC(=O)NC4=O)cc3)CC2)CC1", "note": "(stereo not shown) [Compound 43]", "values": [{"measurement": "DC50", "setting": "Table 1", "result": "< 100", "unit": "nM"}]}
{"smiles": "COc1cc(-c2cn(C)c(=O)c3[nH]ncc23)cc(OC)c1CN1CCN(C(=O)CN2CCC(c3ccc(NC4CCC(=O)NC4=O)c(Cl)c3)CC2)CC1", "note": "(stereo not shown) [Compound 10]", "values": [{"measurement": "DC50", "setting": "Table 1", "result": "< 100", "unit": "nM"}]}
{"smiles": "COc1cc(-c2cn(C)c(=O)c3[nH]ncc23)cc(OC)c1CNC1CCN(CC(=O)N2CCC(c3ccc(NC4CCC(=O)NC4=O)cc3)CC2)CC1", "note": "(stereo not shown) [Compound 39]", "values": [{"measurement": "DC50", "setting": "Table 1", "result": "< 100", "unit": "nM"}]}
{"smiles": "COc1cc(-c2cn(C)c(=O)c3[nH]ncc23)cc(OC)c1CN1CCN(CCCC(=O)N2CCC(c3ccc(NC4CCC(=O)NC4=O)cc3)CC2)CC1", "note": "(stereo not shown) [Compound 40]", "values": [{"measurement": "DC50", "setting": "Table 1", "result": "< 100", "unit": "nM"}]}
{"smiles": "COc1cc(-c2cn(C)c(=O)c3cnccc23)cc(Cl)c1C(=O)N1CCC(N2CCN(c3ccc(NC4CCC(=O)NC4=O)cc3F)CC2)C(F)(F)C1", "note": "(stereo not shown) [Compound 224]", "values": [{"measurement": "DC50", "setting": "Table 1", "result": "< 100", "unit": "nM"}]}
{"smiles": "Cn1cc(-c2cc(Cl)c(C(=O)N3CCN(C(=O)CN4CCC(c5ccc(NC6CCC(=O)NC6=O)cc5)CC4)CC3)cc2Cl)c2cn[nH]c2c1=O", "note": "(stereo not shown) [Compound 48]", "values": [{"measurement": "DC50", "setting": "Table 1", "result": "100 to 500", "unit": "nM"}]}
{"smiles": "COc1cc(-c2cn(C)c(=O)c3[nH]ncc23)cc(OC)c1CN1CC(NC(=O)CN2CCC(c3ccc(NC4CCC(=O)NC4=O)cc3)CC2)C1", "note": "(stereo not shown) [Compound 5]", "values": [{"measurement": "DC50", "setting": "Table 1", "result": "< 100", "unit": "nM"}]}
{"smiles": "COc1cc(-c2cn(C)c(=O)c3cnccc23)cc(Cl)c1CN1CCC(C2CCN(c3ccc(NC4CCC(=O)NC4=O)cc3Cl)CC2)C(F)(F)C1", "note": "(stereo not shown) [Compound 200]", "values": [{"measurement": "DC50", "setting": "Table 1", "result": "< 100", "unit": "nM"}]}
{"smiles": "COc1cc(-c2cn(C)c(=O)c(C)c2C)cc(F)c1CN1CCC(N2CCN(c3ccc(NC4CCC(=O)NC4=O)cc3F)CC2)C(F)(F)C1", "note": "(stereo not shown) [Compound 191]", "values": [{"measurement": "DC50", "setting": "Table 1", "result": "< 100", "unit": "nM"}]}
{"smiles": "COc1cc(-c2cn(C)c(=O)c3cnccc23)cc(Cl)c1CN1CCC(N(C)C(=O)N2CCC(c3ccc(NC4CCC(=O)NC4=O)cc3)CC2)CC1", "note": "(stereo not shown) [Compound 115]", "values": [{"measurement": "DC50", "setting": "Table 1", "result": "< 100", "unit": "nM"}]}
{"smiles": "C/C=C/Cn1cc(-c2cc(OC)c(CN3CCC(N4CCN(c5ccc(NC6CCC(=O)NC6=O)cc5F)CC4)C(F)(F)C3)c(OC)c2)c(C)c(C)c1=O", "note": "(stereo not shown) [Compound 265, 3-[4-[4-[1-[[4-[1-[(E)-but-2-enyl]-4,5-dimethyl-6-oxo-3-pyridyl]-2,6-dimethoxy-phenyl]methyl]-3,3-difluoro-4-piperidyl]piperazin-1-yl]-3-fluoro-anilino]piperidine-2,6-dione]", "values": [{"measurement": "DC50", "setting": "Table 2", "result": "< 100", "unit": "nM"}]}
{"smiles": "COc1cc(-c2cn(C)c(=O)c3ccccc23)cc(Cl)c1CN1CCC(N2CCC(c3ccc(NC4CCC(=O)NC4=O)cc3F)CC2)C(F)(F)C1", "note": "(stereo not shown) [Compound 202]", "values": [{"measurement": "DC50", "setting": "Table 1", "result": "< 100", "unit": "nM"}]}
{"smiles": "[2H]C([2H])([2H])n1cc(-c2ccc(CN3CCC(C4CCN(c5ccc(NC6CCC(=O)NC6=O)cc5F)CC4)CC3)c(OC(F)(F)F)c2)c2ccncc2c1=O", "note": "(stereo not shown) [Compound 252, 3-[3-fluoro-4-[4-[1-[[4-[1-oxo-2-(trideuteriomethyl)-2,7-naphthyridin-4-yl]-2-(trifluoromethoxy)phenyl]methyl]-4-piperidyl]-1-piperidyl]anilino]piperidine-2,6-dione]", "values": [{"measurement": "DC50", "setting": "Table 2", "result": "< 100", "unit": "nM"}]}
